In patent US12084472B2 (Ardelyx, Inc., priority 2015, dated 2024):

Biological target: T1, human TGR5 (Homo sapiens, UniProt Q8TDU6)
T1 construct: expressed in transfected cells; host or cells: HEK293
T1 sequence (Q8TDU6 1-330): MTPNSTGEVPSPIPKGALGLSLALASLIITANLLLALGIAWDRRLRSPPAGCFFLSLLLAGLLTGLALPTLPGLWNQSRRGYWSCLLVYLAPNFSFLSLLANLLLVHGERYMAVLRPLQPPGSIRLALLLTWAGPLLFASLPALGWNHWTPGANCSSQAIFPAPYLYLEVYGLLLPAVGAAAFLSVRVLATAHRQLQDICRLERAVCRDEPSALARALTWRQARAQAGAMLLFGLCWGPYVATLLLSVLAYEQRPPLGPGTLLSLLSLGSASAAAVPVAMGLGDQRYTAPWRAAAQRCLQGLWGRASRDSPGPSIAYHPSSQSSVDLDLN
Test: Cell-based TGR5 assay (cAMP generation, HTRF)
Details: HEK293 cells stably transfected with human TGR5; cAMP by HTRF; 30 minutes at 37° C.; read-out: pEC50 Human TGR5 (converted)
How it was run: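 Read-out was HTRF detection of cAMP, converted to concentration via a standard curve and fitted (3-parameter logistic) for pEC50 and maximal response. Agonist stimulation used HEK293 cells stably transfected with human TGR5, incubated 30 min at 37° C in IBMX-containing buffer at 0.05 nM to 10 μM compound.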

Row | SMILES | EC50 [nM]
1 | C[C@@H](CCCCN)c1ccc(Cl)c(COC2(c3cnccc3-c3ccccc3OC3CC3)CC2)c1 (single isomer, unassigned) [Compound I-246] | 126 to 1000
2 | CN(Cc1cc(Cl)ccc1Cl)C1(c2cnccc2-c2ccccc2OC2CC2)CC1 [Compound I-58, 1-[4-(2-cyclopropoxyphenyl)pyridin-3-yl]-N-[(2,5-dichlorophenyl)methyl]-N-1-amine] | 1260 to 10000
3 | CNC(=O)CN(C[C@H](O)[C@@H](O)[C@H](O)[C@H](O)CO)C(=O)CCCSc1ccc(Cl)c(COC2(c3cnccc3-c3ccccc3OC3CC3)CC2)c1 [Compound I-670, 4-{[4-chloro-3-({1-[4-(2-cyclopropoxyphenyl)pyridin-3-yl]cyclopropoxy}methyl)phenyl]sulfanyl}-N-[(methylcarbamoyl)methyl]-N-[(2S,3R,4R,5R)-2,3,4,5,6-pentahydroxyhexyl]butanamide] | 126 to 1000
4 | O=C(COCC1CCN(S(=O)(=O)c2ccc(Cl)c(COC3(c4cnccc4-c4ccccc4OC4CC4)CC3)c2)C1)NC[C@H](O)[C@@H](O)[C@H](O)[C@H](O)CO (stereo partly drawn) [Compound I-455, 2-({1-[4-chloro-3-({1-[4-(2-cyclopropoxyphenyl)pyridin-3-yl]cyclopropoxy}methyl)benzenesulfonyl]pyrrolidin-3-yl}methoxy)-N-[(2S,3R,4R,5R)-2,3,4,5,6-pentahydroxyhexyl]acetamide] | < 100
5 | CCCN(CCCCc1cc(Cl)c(COC2(c3cnccc3-c3ccccc3OC3CC3)CC2)cc1Cl)C(=O)[C@@H](O)[C@@H](O)[C@H](O)[C@@H](O)CO [Compound I-205, (2S,3S,4R,5S)-N-{4-[2,5-dichloro-4-({1-[4-(2-cyclopropoxyphenyl)pyridin-3-yl]cyclopropoxy}methyl)phenyl]butyl}-2,3,4,5,6-pentahydroxy-N-propylhexanamide] | < 100
6 | Fc1ccccc1-c1ccncc1C1(OCc2cc(Cl)ccc2Cl)CC1 [Compound I-50, 3-{1-[(2,5-dichlorophenyl)methoxy]cyclopropyl}-4-(2-fluorophenyl)pyridine] | 1260 to 10000
7 | Cc1ccc(C(C)CCCC(=O)N(CCO)C[C@H](O)[C@@H](O)[C@H](O)[C@H](O)CO)cc1CNC1(c2cnccc2-c2ccccc2OC2CC2)CC1 (stereo partly drawn) [Compound I-355, 5-{3-[({1-[4-(2-cyclopropoxyphenyl)pyridin-3-yl]cyclopropyl}amino)methyl]-4-methylphenyl}-N-(2-hydroxyethyl)-N-[(2S,3R,4R,5R)-2,3,4,5,6-pentahydroxyhexyl]hexanamide] | < 100
8 | O=C(CCCCc1cc(Cl)c(COC2(c3cnccc3-c3ccccc3OC3CC3)CC2)cc1Cl)N(Cc1ccccc1)C[C@@H](O)[C@H](O)[C@H](O)[C@H](O)CO [Compound I-120, N-benzyl-5-(2,5-dichloro-4-((1-(4-(2-cyclopropoxyphenyl)pyridin-3-yl)cyclopropoxy)methyl)phenyl)-N-((2R,3S,4R,5R)-2,3,4,5,6-pentahydroxyhexyl)pentanamide] | 126 to 1000
9 | FC(F)(F)c1ccc(Cl)cc1COC1(c2cnccc2-c2ccccc2OC2CC2)CC1 [Compound I-51, 3-(1-{[5-chloro-2-(trifluoromethyl)phenyl]methoxy}cyclopropyl)-4-(2-cyclopropoxyphenyl) pyridine] | 126 to 1000
10 | O=C(CCCCc1cc(Cl)c(COC2(c3cnccc3-c3ccccc3OC3CC3)CC2)cc1Cl)NCCCN1CCN(CCCNC(=O)CCCCc2cc(Cl)c(COC3(c4cnccc4-c4ccccc4OC4CC4)CC3)cc2Cl)CC1 [Compound I-101, 5-[2,5-dichloro-4-({1-[4-(2-cyclopropoxyphenyl)pyridin-3-yl]cyclopropoxy}methyl)phenyl]-N-{3-[4-(3-{5-[2,5-dichloro-4-({1-[4-(2-cyclopropoxyphenyl)pyridin-3-yl]cyclopropoxy}methyl)phenyl]pentanamido}propyl)piperazin-1-yl]propyl}pentanamide] | 1260 to 10000
11 | CC(=O)N1CCCN(S(=O)(=O)c2ccc(Cl)c(COC3(c4cnccc4-c4ccccc4OC4CC4)CC3)c2)CC1 [Compound I-732, 1-(4-[[4-chloro-3-([1-[4-(2-cyclopropoxyphenyl)pyridin-3-yl]cyclopropoxy]methyl)benzene]sulfonyl]-1,4-diazepan-1-yl)ethan-1-one] | < 100
12 | CN(C[C@H](O)[C@@H](O)[C@H](O)[C@H](O)CO)C(=O)NCCCCc1cc(Cl)c(CNC2(c3cnccc3-c3ccccc3OC3COC3)CC2)cc1Cl [Compound I-175, 1-[4-(2,5-dichloro-4-{[(1-{4-[2-(oxetan-3-yloxy)phenyl]pyridin-3-yl}cyclopropyl)amino]methyl}phenyl)butyl]-3-methyl-3-[(2S,3R,4R,5R)-2,3,4,5,6-pentahydroxyhexyl]urea] | 126 to 1000
13 | O=C(NCCCCc1cc(Cl)c(CNC2(c3cnccc3-c3ccccc3OC3COC3)CC2)cc1Cl)NC[C@H](O)[C@@H](O)[C@H](O)[C@H](O)CO [Compound I-174, 1-[4-(2,5-dichloro-4-([(1-{4-[2-(oxetan-3-yloxy)phenyl]pyridin-3-yl}cyclopropyl)amino]methyl)phenyl)butyl]-3-[(2S,3R,4R,5R)-2,3,4,5,6-pentahydroxyhexyl]urea] | 126 to 1000
14 | CN(CCCCc1cc(Cl)c(COC2(c3cnccc3-c3ccccc3OC3CC3)CC2)cc1Cl)C(=O)[C@@H](O)[C@@H](O)[C@H](O)[C@@H](O)CN1CCOCC1 (stereo in doubt) [Compound I-189, (2S,3S,4R,5S)-N-{4-[2,5-dichloro-4-({1-[4-(2-cyclopropoxyphenyl)pyridin-3-yl]cyclopropoxy}methyl)phenyl]butyl}-2,3,4,5-tetrahydroxy-N-methyl-6-(morpholin-4-yl)hexanamide] | < 100
15 | CC(C)(CO)CN(C[C@@H](O)[C@H](O)[C@@H](O)[C@@H](O)CO)C(=O)CCCSc1ccc(Cl)c(COC2(c3cnccc3-c3ccccc3OC3CC3)CC2)c1 [Compound I-687, 4-{[4-chloro-3-({1-[4-(2-cyclopropoxyphenyl)pyridin-3-yl]cyclopropoxy}methyl)phenyl]sulfanyl}-N-(3-hydroxy-2,2-dimethylpropyl)-N-[(2R,3S,4S,5S)-2,3,4,5,6-pentahydroxyhexyl]butanamide] | 126 to 1000
16 | COCCN(CCCCCNC(=O)NC[C@H](O)[C@@H](O)[C@H](O)[C@H](O)CO)S(=O)(=O)c1ccc(Cl)c(COC2(c3cnccc3-c3ccccc3OC3CC3)CC2)c1 [Compound I-412, 1-{5-[N-(2-methoxyethyl)4-chloro-3-({1-[4-(2-cyclopropoxyphenyl)pyridin-3-yl]cyclopropoxy}methyl)benzenesulfonamido]pentyl}-3-[(2S,3R,4R,5R)-2,3,4,5,6-pentahydroxyhexyl]urea] | < 100
17 | CC(C)N(CCCCNC(=O)N[C@@H](CO)[C@@H](O)[C@H](O)[C@H](O)CO)S(=O)(=O)c1ccc(Cl)c(COC2(c3cnccc3-c3ccccc3OC3CC3)CCOC2)c1 (stereo partly drawn) [Compound I-749, 4-chloro-3-(((3-(4-(2-cyclopropoxyphenyl)pyridin-3-yl)tetrahydrofuran-3-yl)oxy)methyl)-N-isopropyl-N-(4-(3-((2S,3R,4S,5R)-1,3,4,5,6-pentahydroxyhexan-2-yl)ureido)butyl)benzenesulfonamide] | < 100
18 | Cc1ccc(C(C)CCCC(=O)O)cc1CNC1(c2cnccc2-c2ccccc2OC2CC2)CC1 (single isomer, unassigned) [Compound I-253] | < 100
19 | Cc1ccc(SCCCN(CCOCCO)C(=O)[C@@H](O)[C@@H](O)[C@H](O)[C@@H](O)CO)cc1COC1(c2cnccc2-c2ccccc2OC2CC2)CC1 [Compound I-538, (2S,3S,4R,5S)-N-(3-{[3-({1-[4-(2-cyclopropoxyphenyl)pyridin-3-yl]cyclopropoxy}methyl)-4-methylphenyl]sulfanyl}propyl)-2,3,4,5,6-pentahydroxy-N-[2-(2-hydroxyethoxy)ethyl]hexanamide] | 1260 to 10000
20 | O=S(=O)(Nc1nccs1)c1ccc(Cl)c(COC2(c3cnccc3-c3ccccc3OC3CC3)CC2)c1 [Compound I-770, 4-chloro-3-((1-(4-(2-cyclopropoxyphenyl)pyridin-3-yl)cyclopropoxy)methyl)-N-(thiazol-2-yl)benzenesulfonamide] | < 100
21 | CN(C[C@H](O)[C@@H](O)[C@H](O)[C@H](O)CO)C(=O)NC1CCN(C(=O)CCCCc2cc(Cl)c(COC3(c4cnccc4-c4ccccc4OC4CC4)CC3)cc2Cl)CC1 (stereo in doubt) [Compound I-159, 1-(1-{5-[2,5-dichloro-4-({1-[4-(2-cyclopropoxyphenyl)pyridin-3-yl]cyclopropoxy}methyl)phenyl]pentanoyl}piperidin-4-yl)-3-methyl-3-[(2S,3R,4R,5R)-2,3,4,5,6-pentahydroxyhexyl]urea] | < 100
22 | CN(C[C@H](O)[C@@H](O)[C@H](O)[C@H](O)CO)C(=O)CCN(CCC(=O)N(C)C[C@H](O)[C@@H](O)[C@H](O)[C@H](O)CO)C(=O)CCCCc1cc(Cl)c(COC2(c3cnccc3-c3ccccc3OC3CC3)CC2)cc1Cl [Compound I-169, 5-[2,5-dichloro-4-({1-[4-(2-cyclopropoxyphenyl)pyridin-3-yl]cyclopropoxy}methyl)phenyl]-N,N-bis(2-{methyl[(2S,3R,4R,5R)-2,3,4,5,6-pentahydroxyhexyl]carbamoyl}ethyl)pentanamide] | 126 to 1000
